Test results published in ChEMBL document CHEMBL4813979.
Each block holds one compound with its values, some of them ahead of it. Calls of active or inactive are those of the source. The rule behind the calls is not given here.

Key:
Mus musculus [1] = assay: Anti-colitis activity against DSS-induced BALB/c mouse model of subchronic relapsing colitis assessed as increase in body weight at 100 mg/kg/day, po administered for 7 days in second week during 2 weeks DSS challenge and measured at the end of 2nd week; type: functional, organism-based; details: time 7.0 day
Mus musculus [2] = assay: Anti-colitis activity against DSS-induced BALB/c mouse model of subchronic relapsing colitis assessed as reduction in fecal blood at 100 mg/kg/day, po administered for 7 days in second week during 2 weeks DSS challenge and measured at the end of 2nd week; type: functional, organism-based; details: time 7.0 day
Mus musculus [3] = assay: Anti-colitis activity against DSS-induced BALB/c mouse model of subchronic relapsing colitis assessed as increase in softening of feces at 100 mg/kg/day, po administered for 7 days in second week during 2 weeks DSS challenge and measured at the end of 2nd week; type: functional, organism-based; details: time 7.0 day
Mus musculus [4] = assay: Anti-colitis activity against DSS-induced BALB/c mouse model of subchronic relapsing colitis assessed as effect on colon length at 100 mg/kg/day, po administered for 7 days in second week during 2 weeks DSS challenge and measured at the end of 2nd week; type: functional, organism-based; details: time 7.0 day
Mus musculus [5] = assay: Anti-colitis activity against DSS-induced BALB/c mouse model of subchronic relapsing colitis assessed as decrease in colon weight to length ratio at 100 mg/kg/day, po administered for 7 days in second week during 2 weeks DSS challenge and measured at the end of 2nd week; type: functional, organism-based; details: time 7.0 day
[6] = target: Glycogen synthase kinase-3 beta (Mus musculus) (UniProt Q9WV60); assay: Inhibition of GSK3-beta in mouse J774.1 cells assessed as reduction in LPS/IFN-gamma-induced NF-kappaB expression at 10 uM measured within 15 mins by Western blot analysis; type: cell-based
Chain of Glycogen synthase kinase-3 beta (Mus musculus) (Q9WV60 whole entry, looked up): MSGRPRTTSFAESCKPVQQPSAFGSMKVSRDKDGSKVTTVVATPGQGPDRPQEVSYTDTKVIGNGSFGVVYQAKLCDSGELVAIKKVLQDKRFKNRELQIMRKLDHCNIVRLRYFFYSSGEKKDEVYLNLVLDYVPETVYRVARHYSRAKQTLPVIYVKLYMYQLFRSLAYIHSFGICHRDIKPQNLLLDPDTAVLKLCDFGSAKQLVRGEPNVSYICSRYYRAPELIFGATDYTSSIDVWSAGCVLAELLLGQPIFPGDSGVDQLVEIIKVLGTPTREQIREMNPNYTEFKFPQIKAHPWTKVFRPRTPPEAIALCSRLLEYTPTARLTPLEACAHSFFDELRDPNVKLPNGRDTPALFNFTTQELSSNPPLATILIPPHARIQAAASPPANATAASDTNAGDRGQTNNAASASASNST

Mus musculus [7] = assay: Anti-colitis activity against DSS-induced BALB/c mouse model of subchronic relapsing colitis assessed as increase in body weight at 100 mg/kg/day, ip administered on days 1 and 3 of second week during 2 weeks DSS challenge and measured at the end of 2nd week; type: functional, organism-based; details: time 1.0 weeks
Mus musculus [8] = assay: Anti-colitis activity against DSS-induced BALB/c mouse model of subchronic relapsing colitis assessed as reduction in fecal blood at 100 mg/kg/day, ip administered on days 1 and 3 of second week during 2 weeks DSS challenge and measured at the end of 2nd week; type: functional, organism-based; details: time 1.0 weeks
Mus musculus [9] = assay: Anti-colitis activity against DSS-induced BALB/c mouse model of subchronic relapsing colitis assessed as increase in softening of feces at 100 mg/kg/day, ip administered on days 1 and 3 of second week during 2 weeks DSS challenge and measured at the end of 2nd week; type: functional, organism-based; details: time 1.0 weeks
Mus musculus [10] = assay: Anti-colitis activity against DSS-induced BALB/c mouse model of subchronic relapsing colitis assessed as effect on colon length at 100 mg/kg/day, ip administered on days 1 and 3 of second week during 2 weeks DSS challenge and measured at the end of 2nd week; type: functional, organism-based; details: time 1.0 weeks

SMILES: O=C(O)c1cc(/N=N/c2ccc(S(=O)(=O)Nc3ccccn3)cc2)ccc1O
Activity (Mus musculus [1]): inactive
Activity (Mus musculus [2]): Active
Activity (Mus musculus [3]): Active
Activity (Mus musculus [4]): inactive
Activity (Mus musculus [5]): Active

inhibition [6]: Active
SMILES: C[S+]([O-])CCCCCCN=C=S (stereo not given)

SMILES: S=C(S)N1CCCC1
Activity (Mus musculus [7]): Active
Activity (Mus musculus [8]): Active
Activity (Mus musculus [9]): Active
Activity (Mus musculus [10]): inactive
